Source: ChEMBL document CHEMBL1240408, “Turning enzymes ON with small molecules” (Nat Chem Biol, 2010)

Experiments:
Rattus norvegicus [1] = organism: Rattus norvegicus; test: Activation of rat liver AMPK relative to basal activity level; type: tissue-based
Rattus norvegicus [2] = organism: Rattus norvegicus; test: (§1) Activation of rat liver AMPK assessed as concentration required to induce 50 % activity
Rattus norvegicus [3] = organism: Rattus norvegicus; test: Activation of rat liver AMPK alpha subunit assessed as concentration required to induce 50 % activity
Caspase-3 (Homo sapiens) = target: T1, Caspase-3 (Homo sapiens) (UniProt P42574); test: Induction of autoactivation of procaspase-3 relative to control
T1 sequence (whole entry): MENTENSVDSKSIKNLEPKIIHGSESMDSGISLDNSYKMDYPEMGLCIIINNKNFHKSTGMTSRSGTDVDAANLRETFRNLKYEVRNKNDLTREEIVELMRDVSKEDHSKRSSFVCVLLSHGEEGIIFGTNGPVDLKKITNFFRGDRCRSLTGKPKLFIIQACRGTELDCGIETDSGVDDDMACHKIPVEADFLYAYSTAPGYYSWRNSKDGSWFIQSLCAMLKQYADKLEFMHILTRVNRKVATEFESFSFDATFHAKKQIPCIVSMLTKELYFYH

[4] = as §1

Cc1cc(-c2ccc(/C=C3\S/C(=N\c4ccc(Cl)c(C(=O)O)c4)NC3=O)o2)c([N+](=O)[O-])cc1C
fold change (FC) (Rattus norvegicus [1]): 1.5
Activity (Rattus norvegicus [2]): 0.3 µM
Activity (Rattus norvegicus [3]): 8 µM

C=CCc1cccc(/C=N/NC(=O)CN2CCN(Cc3ccccc3)CC2)c1O
fold change (FC) (Caspase-3 (Homo sapiens)): 3

N#Cc1c(O)c2c(-c3ccc(-c4ccccc4O)cc3)csc2[nH]c1=O
Activity (Rattus norvegicus [2]): 0.8 µM

Nc1ncnc2c1ncn2[C@@H]1O[C@H](COP(=O)(O)O)[C@@H](O)[C@H]1O [ADENOSINE PHOSPHATE]
AC50 [4]: 56 µM
